We go through three substances from patent US5663149A, “Human cancer inhibitory pentapeptide heterocyclic and halophenyl amides” (priority 1994, dated 1997).

Where only a bound is given, the exact number is not on record here.

For one assay, the system named is KM20L2 (Colon). The assay is described as follows: NCI human tumor cell line growth inhibition, KM20L2. The format is cell-based. The settings on record: Colon KM20L2, 48 hours. On the procedure:
(§1) The only difference is historical usage.
(§2) Percent Growths are calculated for each dose.
(§3) This is the "baseline count", or "Tzero reading".

The next assay relates to OVCAR-3 (Ovarian). Nature of the assay: NCI human tumor cell line growth inhibition, OVCAR-3. The format is cell-based. As to conditions: Ovarian OVCAR-3, 48 hours. How it is done: as §1, §2, §3
For the next assay, the system named is A498 (Renal). As to conditions: Renal A498, 48 hours.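 Further: NCI protocol, compound given at five doses from 0.01 to 100 µg/ml, percent growth versus untreated controls relative to cell count at time zero, regression on log dose.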
The test system of the next assay is PS-388 (Mouse Leukemia). Nature of the assay: P-388 mouse leukemia cell growth inhibition. The format is cell-based. As to conditions: Mouse Leukemia PS-388. How it is done: as §1, §2, §3
A further assay relates to NCI-H460 (Lung-NSC). Nature of the assay: NCI human tumor cell line growth inhibition, NCI-H460. The format is cell-based. As to conditions: Lung-NSC NCI-H460, 48 hours. On the procedure:
as §1, §2, §3

In a further assay the test system is SF-295 (CNS). Nature of the assay: NCI human tumor cell line growth inhibition, SF-295. The format is cell-based. The settings on record: CNS SF-295, 48 hours. How it is done: as §1, §2, §3
The test system of another assay is SK-MEL-5 (Melanoma). The assay is described as follows: NCI human tumor cell line growth inhibition, SK-MEL-5. The settings on record: Melanoma SK-MEL-5, 48 hours. The format is cell-based. On the procedure:
as §1, §2, §3

Source text for A498 (Renal): The following measures are used to express drug activity by giving the drug dose which reduces cell growth to a specified percentage of growth:
There is no mathematical difference between ED50 and GI50, which are both calculated using the same formula. The only difference is historical usage.
TGI, (Total Growth Inhibition), is the drug dose needed to yield zero percent growth, i.e., just as many cells at the end of the experiment as were present in the beginning. Whether just as many cells were killed as were produced (steady state), or no growth occurred (total inhibition), cannot be distinguished.
Each drug is tested at five (5) doses: 100-10-1-0.1-0.01 μg/ml. Percent Growths are calculated for each dose. […] The log of the dose is used during the regression computation.
At the start of an experiment, cells from the in vitro cell cultures are inoculated into the appropriate tubes or microtiter plates. One set of control tubes/plates is immediately counted to determine the number of cells at the start of the experiment. This is the "baseline count", or "Tzero reading". At the end of the experiment (48 hours later) a second set of control tubes/plates is analyzed to determine the "Control Growth" value. The growth (or death) of cells relative to the initial quantity of cells is used to define the "Percent of Growth".

For the substance “L-Dolavalyl-L-Valyl-N-Methyl-(S,S,R)-Dolaisoleuinyl-(S,R,R)-Dolaproinyl-L- (p-Chloro)phenylalanine N-2-(6-Chloro)benzothiazole Amide [9l]”, the GI-50 in the assay on KM20L2 (Colon) is 0.000031 µg/mL; in the assay on OVCAR-3 (Ovarian) it was 0.000018 µg/mL; with A498 (Renal), 0.000059 µg/mL; with NCI-H460 (Lung-NSC), 0.000043 µg/mL; in the assay with SF-295 (CNS), 0.000036 µg/mL; in the assay on SK-MEL-5 (Melanoma), 0.0000061 µg/mL. Further, the TGI in the assay with KM20L2 (Colon) was 0.096 ng/mL; in the assay with OVCAR-3 (Ovarian) it was 0.071 ng/mL; in the assay on A498 (Renal), over 0.1 ng/mL; with NCI-H460 (Lung-NSC) it was over 0.1 ng/mL; in the assay with SF-295 (CNS), over 0.1 ng/mL; in the assay on SK-MEL-5 (Melanoma), over 0.1 ng/mL. The same substance returned an ED-50 in the assay on PS-388 (Mouse Leukemia) of 0.000458 µg/mL.

Take “L-Dolavalyl-L-Valyl-N-Methyl-(S,S,R)-Dolaisoleuinyl-(S,R,R)-Dolaproinyl-L- Isoleucine N-3-Quinoline Amide [9s]”: the GI-50 stood at 0.00003 µg/mL with KM20L2 (Colon); 0.000018 µg/mL with OVCAR-3 (Ovarian); 0.000065 µg/mL with A498 (Renal); 0.000027 µg/mL with NCI-H460 (Lung-NSC); 0.000028 µg/mL in the assay on SF-295 (CNS); 0.0000039 µg/mL with SK-MEL-5 (Melanoma). Moreover, the LC-50 with KM20L2 (Colon), in the assay with OVCAR-3 (Ovarian), in the assay with A498 (Renal), in the assay with NCI-H460 (Lung-NSC), in the assay on SF-295 (CNS) and with SK-MEL-5 (Melanoma) was over 0.0001 µg/mL in each case. In addition, the TGI with KM20L2 (Colon) was over 0.1 ng/mL; with OVCAR-3 (Ovarian), 0.079 ng/mL; in the assay with A498 (Renal), over 0.1 ng/mL; with NCI-H460 (Lung-NSC), over 0.1 ng/mL; in the assay on SF-295 (CNS), over 0.1 ng/mL; with SK-MEL-5 (Melanoma), over 0.1 ng/mL. For the same substance, the ED-50 with PS-388 (Mouse Leukemia) was 0.00352 µg/mL.

Turning to “L-Dolavalyl-L-Valyl-N-Methyl-(S,S,R)-Dolaisoleuinyl-(S,R,R)-Dolaproinyl-L- Methionine N-1-(2-p-Chlorophenylethyl) Amide [9i]”, the GI-50 in the assay on KM20L2 (Colon) was 0.0000048 µg/mL; with OVCAR-3 (Ovarian), 0.000017 µg/mL; in the assay with A498 (Renal), 0.000067 µg/mL; in the assay on NCI-H460 (Lung-NSC), 0.0000032 µg/mL; in the assay with SF-295 (CNS), 0.000026 µg/mL; in the assay on SK-MEL-5 (Melanoma), 0.0000012 µg/mL. Besides, the LC-50 in the assay with KM20L2 (Colon), with OVCAR-3 (Ovarian), in the assay on A498 (Renal), with NCI-H460 (Lung-NSC), in the assay on SF-295 (CNS) and in the assay with SK-MEL-5 (Melanoma) was over 0.001 µg/mL throughout. Further, the concentration for total growth inhibition (TGI) in the assay with KM20L2 (Colon) was 0.13 ng/mL; with OVCAR-3 (Ovarian), 0.072 ng/mL; in the assay on A498 (Renal) it was over 1 ng/mL; in the assay with NCI-H460 (Lung-NSC), 0.011 ng/mL; in the assay with SF-295 (CNS), over 1 ng/mL; in the assay on SK-MEL-5 (Melanoma), 0.43 ng/mL. The same substance displayed an ED-50 with PS-388 (Mouse Leukemia) of 0.000111 µg/mL.

As a reminder, the TGI is the concentration at which net growth stops. Read a low TGI as more potent growth arrest.
